One series deals with Brain. Kind of series: Specific drug uptake in ICR mouse brain at 4 uCi, iv measured 60 mins post dose. Format: ADME, organism-based. The settings on record: in vivo, 1 h.
The target in series [1] is T1, Vesicular acetylcholine transporter (Homo sapiens, UniProt Q16572).
T1 sequence (Q16572 whole entry): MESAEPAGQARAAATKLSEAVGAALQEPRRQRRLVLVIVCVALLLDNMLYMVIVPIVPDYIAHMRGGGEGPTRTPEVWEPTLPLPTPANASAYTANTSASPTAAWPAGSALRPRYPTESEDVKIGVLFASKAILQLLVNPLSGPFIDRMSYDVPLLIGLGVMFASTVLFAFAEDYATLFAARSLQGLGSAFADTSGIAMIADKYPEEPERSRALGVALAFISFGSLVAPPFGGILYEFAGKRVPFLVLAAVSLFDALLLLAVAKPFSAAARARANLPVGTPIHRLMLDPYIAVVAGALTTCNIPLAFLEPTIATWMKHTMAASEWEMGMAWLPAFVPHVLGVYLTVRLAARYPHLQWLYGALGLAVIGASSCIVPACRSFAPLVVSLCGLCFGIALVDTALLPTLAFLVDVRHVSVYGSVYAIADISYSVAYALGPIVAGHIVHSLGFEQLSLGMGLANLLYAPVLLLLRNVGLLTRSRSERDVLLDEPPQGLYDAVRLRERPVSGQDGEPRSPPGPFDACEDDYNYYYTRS
Nature of the series: Binding affinity to VAChT (unknown origin).

Series [2] is described as follows: Displacement of [3H]ditolyguanidine from sigma2 receptor in rat liver membranes. The format is cell membranes, Membrane. In general terms: Displacement assays read how much labelled ligand stays bound in the presence of the test substance.
The species named for another series is Rattus norvegicus. Nature of the series: Selectivity index, ratio of Ki for sigma2 receptor in rat liver membranes to Ki for sigma1 receptor in rat brain membranes. The format is cell membranes.
Series [3] addresses Sigma non-opioid intracellular receptor 1 (Rattus norvegicus, UniProt Q9R0C9). Kind of series: Displacement of (+)-[3H]pentazocine from sigma1 receptor in rat brain membranes. Format: cell membranes.

The source of these data is ChEMBL document CHEMBL2311316, “Synthesis and biological evaluation of ¹⁸F labeled fluoro-oligo-ethoxylated 4-benzylpiperazine derivatives for sigma-1 receptor imaging” (Bioorg Med Chem, 2013).

Structures are written as SMILES.

Sigma non-opioid intracellular receptor 1, sequence (Q9R0C9 whole entry): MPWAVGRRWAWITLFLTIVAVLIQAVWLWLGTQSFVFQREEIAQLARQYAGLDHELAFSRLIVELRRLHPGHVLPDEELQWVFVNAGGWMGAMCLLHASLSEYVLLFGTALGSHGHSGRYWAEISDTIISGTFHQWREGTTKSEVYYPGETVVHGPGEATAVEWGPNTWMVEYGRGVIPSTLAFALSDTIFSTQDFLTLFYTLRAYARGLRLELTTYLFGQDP

The compound `[17F]CCC1OC2(CCN(Cc3ccccc3)CC2)c2ccccc21` (configuration not stated) [[18F]FLUSPIDINE] displayed a Drug uptake with Brain of 62%. In addition, affinity in series [1] was put at a Ki of 211 nM.
Regarding `O=C(CCCN1CCC(O)(c2ccc(Cl)cc2)CC1)c1ccc(F)cc1` [HALOPERIDOL], in series [2], the affinity, expressed as Ki, was 20.7 nM.
With `FCCOCCOCCOc1ccc(CN2CCN(Cc3ccc4c(c3)OCO4)CC2)cc1`, the Ratio Ki in the series filed under Rattus norvegicus was found to be 2.81. Moreover, the Ki (in general, the dissociation constant of the complex between target and ligand, obtained from inhibition or displacement) in series [3] was 505 nM; in series [2], 1420 nM.
The like results for `FCCOc1ccc(CN2CCN(Cc3ccc4c(c3)OCO4)CC2)cc1` were, in that order, 157, 1.85 nM and 291 nM.
As for `FCCOCCOc1ccc(CN2CCN(Cc3ccc4c(c3)OCO4)CC2)cc1`, the Ratio Ki in the series filed under Rattus norvegicus came out at 16.4. The Ki in series [3] stood at 40.7 nM; in series [2] it was 666 nM.
